Measurements from patent publication US8415349B2, “Dicycloazaalkane derivatives, preparation processes and medical uses thereof” (Jiangsu Hansoh Pharmaceuticals Co., Ltd., priority 2008, dated 2013).
Counter-ions that a name gives are not always drawn.

Key:
[1] = system: KKAy mice; experiment: Oral glucose tolerance test in type II diabetes KKAy mice; assay type: in vivo; details: 30 min after glucose
Description: Species, Strains: KKAy mice Preparation Method: […] The volume is 10 mL/kg. The Effects of the Compounds on Blood Glucose in KKay Mice Normal KKAy mice had been fasted for 6 hours, and then were randomly grouped according to the weights and fasting blood glucose, 5 mice in each group. The groups included a blank control group as well as different doses of the treatment groups as follows: Test 1: male 0704 Blank control: double-distilled water by gavage […] Test 2: female 0816 Blank control: double-distilled water by gavage […] Test 3: male 0712 Black control: double-distilled water by gavage […] Test 4: female 0907 Black control: double-distilled water by gavage […] 3. Mean±SD and Student-t test, or Anova was used in statistical analysis. 4.

[2] = system: normal ICR mice; experiment: Oral glucose tolerance test in normal ICR mice (hypoglycemic effect); assay type: in vivo; details: 2.5 g/kg glucose, 30 min after glucose
Description: Species, strains: ICR mice […] The volume is 20 mL/kg. […] The volume is 20 mL/kg. 1. The effects of compounds on blood glucose levels in normal ICR mice Normal male ICR mice were randomly grouped according to weights, 6 mice in each group. The groups included a black control group as well as different doses of the treatment groups as follows: Test 1: Blank control: double-distilled water by gavage. Group 1: the compound of Example 1, 1 mg/kg by gavage; […] Test 2: Blank control: double-distilled water by gavage. Group 1: the compound of Example 1, 1 mg/kg by gavage; […] 2. Serum Glucose Determination: […] The blank tube was used to set the instrument to zero, the colorimetric assay was performed at OD 505 nm. Serum glucose concentration (BG, mmol/l)=ODsample tube/ODstandard tube×5.55 Data Processing and Statistical Analysis: 1. Mean±SD and Student-t test were used in statistical analysis. 2.

[3] = Observation of water solubility when preparing dosing liquid; assay type: physicochemical; details: double distilled water; visible particles at 0.5 mg/mL, dissolved at low concentration
Description: Preparation Method: Compounds were weighed accurately, and then dissolved in double distilled water. The suspensions of 0.5, 0.15 and 0.05 mg/mL were prepared, respectively.

[4] = target: T1, DPP-IV (Homo sapiens, UniProt P27487); experiment: Assay for DPP-IV inhibitory activity (DPP-IV-Glo luminescence); assay type: biochemical; details: purified DPP-IV enzyme
T1 construct: purchased Calbiochem 317630
Source text: 2. […] 3. […] 4. […] 5. […] 7. […] 9. […] 10. […] 11. […] 12.

[5] = target: T2, DPP-VIII (Homo sapiens, UniProt Q6V1X1); experiment: Assay for DPP-VIII inhibitory activity (luminescence); assay type: biochemical; details: purified DPP-VIII enzyme
T2 construct: purchased Bioscience 80080

[6] = target: T3, DPP-IX (Homo sapiens, UniProt Q86TI2); experiment: Assay for DPP-IX inhibitory activity (luminescence); assay type: biochemical; details: purified DPP-IX enzyme
T3 construct: purchased Bioscience 80090

[7] = female KKAy mice, 10 mg/kg by gavage, 2.5 g/kg glucose
[8] = male KKAy mice, 10 mg/kg by gavage, 1.5 g/kg glucose
[9] = male KKAy mice, 30 mg/kg by gavage, 1.5 g/kg glucose
[10] = Test 1, male ICR mice, high dose 10 mg/kg by gavage
[11] = Test 1, male ICR mice, low dose 1 mg/kg by gavage
[12] = Test 1, male ICR mice, middle dose 3 mg/kg by gavage
[13] = Test 2, male ICR mice, high dose 10 mg/kg by gavage
[14] = Test 2, male ICR mice, low dose 1 mg/kg by gavage
[15] = Test 2, male ICR mice, middle dose 3 mg/kg by gavage

T3 sequence (Q86TI2 whole entry): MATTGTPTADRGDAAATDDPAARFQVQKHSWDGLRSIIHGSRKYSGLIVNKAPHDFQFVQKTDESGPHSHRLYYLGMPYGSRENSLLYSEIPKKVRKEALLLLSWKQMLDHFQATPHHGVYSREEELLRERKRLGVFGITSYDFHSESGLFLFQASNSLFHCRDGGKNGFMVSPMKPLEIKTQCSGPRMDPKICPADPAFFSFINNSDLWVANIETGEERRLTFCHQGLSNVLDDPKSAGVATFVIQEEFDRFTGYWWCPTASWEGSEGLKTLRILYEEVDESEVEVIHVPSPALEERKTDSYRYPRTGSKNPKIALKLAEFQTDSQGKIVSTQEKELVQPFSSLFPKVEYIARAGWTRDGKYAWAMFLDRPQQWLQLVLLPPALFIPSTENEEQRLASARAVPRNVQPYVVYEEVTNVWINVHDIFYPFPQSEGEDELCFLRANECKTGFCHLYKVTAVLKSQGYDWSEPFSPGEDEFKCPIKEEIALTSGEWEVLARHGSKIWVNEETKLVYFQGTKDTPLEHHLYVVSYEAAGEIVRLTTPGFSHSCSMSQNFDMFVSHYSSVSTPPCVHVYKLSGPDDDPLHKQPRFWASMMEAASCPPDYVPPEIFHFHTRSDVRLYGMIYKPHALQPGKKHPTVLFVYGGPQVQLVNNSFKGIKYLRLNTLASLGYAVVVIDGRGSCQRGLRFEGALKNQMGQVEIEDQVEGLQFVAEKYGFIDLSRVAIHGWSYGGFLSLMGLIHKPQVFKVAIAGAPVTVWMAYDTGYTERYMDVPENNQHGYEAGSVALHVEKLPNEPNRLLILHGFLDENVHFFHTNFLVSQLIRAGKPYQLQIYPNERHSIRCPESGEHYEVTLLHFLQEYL
T2 sequence (Q6V1X1 whole entry): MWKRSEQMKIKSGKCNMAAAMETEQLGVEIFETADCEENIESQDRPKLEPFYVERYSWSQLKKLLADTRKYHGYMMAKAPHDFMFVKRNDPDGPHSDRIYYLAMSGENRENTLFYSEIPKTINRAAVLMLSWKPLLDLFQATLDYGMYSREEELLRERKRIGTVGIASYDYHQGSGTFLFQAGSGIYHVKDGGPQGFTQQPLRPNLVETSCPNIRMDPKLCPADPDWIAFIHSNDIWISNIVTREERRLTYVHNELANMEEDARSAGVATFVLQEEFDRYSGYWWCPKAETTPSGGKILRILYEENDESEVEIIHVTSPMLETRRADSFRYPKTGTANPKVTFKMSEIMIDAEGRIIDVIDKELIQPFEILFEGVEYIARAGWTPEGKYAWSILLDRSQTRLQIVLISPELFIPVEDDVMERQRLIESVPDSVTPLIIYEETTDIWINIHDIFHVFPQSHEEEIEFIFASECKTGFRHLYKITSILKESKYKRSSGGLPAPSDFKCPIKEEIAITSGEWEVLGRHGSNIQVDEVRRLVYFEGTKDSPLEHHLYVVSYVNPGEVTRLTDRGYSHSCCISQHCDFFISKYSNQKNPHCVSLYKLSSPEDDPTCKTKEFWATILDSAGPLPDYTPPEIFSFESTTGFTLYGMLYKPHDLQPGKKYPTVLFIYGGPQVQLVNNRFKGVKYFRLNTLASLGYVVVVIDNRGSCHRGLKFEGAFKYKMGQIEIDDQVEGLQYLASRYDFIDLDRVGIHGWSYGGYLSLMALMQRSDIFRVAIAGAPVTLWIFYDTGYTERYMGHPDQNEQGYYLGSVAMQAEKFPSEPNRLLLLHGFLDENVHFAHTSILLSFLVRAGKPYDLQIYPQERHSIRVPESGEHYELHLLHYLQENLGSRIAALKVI
T1 sequence (P27487 whole entry): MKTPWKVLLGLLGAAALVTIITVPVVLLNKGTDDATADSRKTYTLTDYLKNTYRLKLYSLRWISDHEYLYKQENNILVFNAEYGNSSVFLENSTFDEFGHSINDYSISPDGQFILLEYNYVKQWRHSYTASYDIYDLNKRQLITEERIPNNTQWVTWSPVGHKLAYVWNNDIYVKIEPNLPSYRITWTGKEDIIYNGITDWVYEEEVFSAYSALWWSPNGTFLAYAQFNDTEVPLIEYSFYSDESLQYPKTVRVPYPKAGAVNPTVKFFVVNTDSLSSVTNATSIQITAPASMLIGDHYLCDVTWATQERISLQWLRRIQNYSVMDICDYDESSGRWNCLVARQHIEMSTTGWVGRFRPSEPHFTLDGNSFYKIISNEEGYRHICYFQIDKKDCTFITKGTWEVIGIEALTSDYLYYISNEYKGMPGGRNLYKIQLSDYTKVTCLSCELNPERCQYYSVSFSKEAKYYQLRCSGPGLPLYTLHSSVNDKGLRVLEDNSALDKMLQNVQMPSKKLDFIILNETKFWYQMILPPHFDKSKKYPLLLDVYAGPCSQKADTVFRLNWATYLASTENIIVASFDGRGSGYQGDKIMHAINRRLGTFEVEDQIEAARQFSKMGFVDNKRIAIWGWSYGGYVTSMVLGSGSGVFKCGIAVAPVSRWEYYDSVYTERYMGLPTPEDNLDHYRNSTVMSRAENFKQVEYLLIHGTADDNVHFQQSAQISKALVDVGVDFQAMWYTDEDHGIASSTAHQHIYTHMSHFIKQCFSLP

Row | IC50 [4] | IC50 [5] | IC50 [6] | Compound | percentage of blood glucose decreased vs control group at 30 minutes ([1]; female KKAy mice, 3 mg/kg by gavage, 2.5 g/kg glucose) | percentage of blood glucose decreased vs control group at 30 minutes [1, 7] | percentage of blood glucose decreased vs control group at 30 minutes [1, 8] | percentage of blood glucose decreased vs control group at 30 minutes [1, 9] | percentage of blood glucose decreased vs control group at 30 minutes [2, 10] | percentage of blood glucose decreased vs control group at 30 minutes [2, 11] | percentage of blood glucose decreased vs control group at 30 minutes [2, 12] | percentage of blood glucose decreased vs control group at 30 minutes [2, 13] | percentage of blood glucose decreased vs control group at 30 minutes [2, 14] | percentage of blood glucose decreased vs control group at 30 minutes [2, 15] | water solubility (observation) [3]
1 | – | – | – | CN(C)C(=O)N1C[C@H]2C[C@@H](NCC(=O)N3CCC[C@H]3C#N)C[C@H]2C1 [Example 1, cis-5-[2-((S)-2-Cyano-pyrrolidin-1-yl)-2-oxo-ethylamino]-N,N-dimethyl-hexahydro-cyclopenta[c]pyrrole-2-carboxamide hydrochloride] | 40.63% | 24.68% | 16.22% | 17.15% | 31.85% | 19.16% | 22.85% | 32.05% | 26.10% | 30.24% | poorly water-soluble
2 | 39 nM | 3320 nM | 380 nM | CN(C)C(=O)N1C[C@@H]2C[C@@](C)(NCC(=O)N3C[C@@H](F)C[C@H]3C#N)C[C@@H]2C1 [Example 18, 5-[2-((2S,4S)-2-Cyano-4-fluoro-pyrrolidin-1-yl)-2-oxo-ethylamino]-5-methyl-hexahydro-cyclopenta[c]pyrrole-2-carboxylic acid dimethylamide p-toluenesulfonate] | – | – | – | – | – | – | – | – | – | – | –
3 | 10 nM | 371 nM | 516 nM | CN(C)C(=O)N1C[C@@H]2C[C@](C)(NCC(=O)N3C[C@@H](F)C[C@H]3C#N)C[C@@H]2C1 [Example 13, 5-[2-((2S,4S)-2-Cyano-4-fluoro-pyrrolidin-1-yl)-2-oxo-ethylamino]-N,N,5-tirmethyl-hexahydro-cyclopenta[c]pyrrole-2-carboxamide tartrate] | – | – | – | – | – | – | – | – | – | – | –
4 | – | – | – | COC(=O)N1C[C@H]2C[C@@H](NCC(=O)N3CCC[C@H]3C#N)C[C@H]2C1 [Example 2, hydrochloride] | – | 21.55% | 13.79% | 12.23% | 26.93% | 25.54% | 25.92% | 27.75% | 24.51% | 26.96% | –
